# Reference: patent publication US20090023700A1, “NEUROPROTECTIVE TREATMENTS” (University of Louisville Research Foundation, priority 2007, published 2009)
# Tests used:
# AP1 = conditions: macrophages; cited from earlier work
# Iba1 = Iba1 immunostaining (microglial/macrophage activation) after T9 contusion; assay type: in vivo, rat; conditions: 7 d infusion started 4 h after injury
# Experimental: Inflammation is a major contributor to white matter loss after spinal cord injury. Therefore, to find a potential mechanism for the axon- and myelin-protective effects of bpV(phen), its effects on Iba1 immunostaining were measured as a marker for microglial/macrophage activation and inflammation. […] Whereas, PBS-infused rats had clear infiltrates of activated macrophages, those infused with bpV(phen) had predominantly […] microglial cells. […] The extent of white matter loss in the dorsal column at the epicenter correlated to the extent of microglia/macrophage activation at the epicenter (FIG. 8B). The extent of inflammation 1 mm rostral to the injury correlated with the loss of CTB-labeled sensory projections in the gracile nucleus (FIG. 8C) but not with that seen at the epicenter (p=0.3) or caudal to the lesion (p=0.57). […] Conversely, the possibility that bpV(phen) affected inflammation at other times over the 7 d period cannot be excluded.
# (§1) Anterogradely labeled sensory fibers and terminals were visualized in every third section through both gracile nuclei by DAB-based immunostaining for CTB as described previously (Baker et al. (2007) Exp Neurol 205:82-91). The lumbar sections were stained to ensure that the CTB injections were successful as evidenced by traced afferents and motor neurons. […] The epicenter of maximal injury was determined by the rostrocaudal level with the least amount of spared white matter per transverse section. […]
# Quantitative measurements and statistics. The extent of sensory innervation of the gracile nucleus was determined by measuring the CTB-labeled terminal fiber area in every third section as described previously (Baker et al. (2007) Exp Neurol 205:82-91). In short, images of every third section through the right and left gracile nuclei were analyzed using the density slice feature of the Scion Image software. […] Images of EC-stained sections were captured, and the positive areas were measured with Scion Image. […]
# RECA1 = RECA1 immunostaining (dorsal column blood vessels at epicenter) after T9 contusion; assay type: in vivo, rat; conditions: for area of blood vessels (RECA1) in the dorsal column: 7 d infusion started immediately after injury
# Experimental: Another potential contributor to axon loss is ischemia caused by blood vessel loss. To test this possibility, the same sections were analyzed for the extent of endothelial cell/blood vessel sparing by immunostaining for RECA1. […] Therefore, epicenter RECA1 was measured in additional 7 d postinjury groups, excluding those infused at the epicenter and those with an epicenter transection (SEP), which damaged the tissue. The bpV(phen) treatment (started immediately after the injury) increased the area of blood vessels in the dorsal column in those rats infused with 30 and 100 μM bpV(phen) (FIG. 8E). […] However, there was no correlation between RECA1- and EC-stained dorsal column epicenter white matter (p=0.98).
# as §1
# Quantitative measurements and statistics. The extent of sensory innervation of the gracile nucleus was determined by measuring the CTB-labeled terminal fiber area in every third section as described previously (Baker et al. (2007) Exp Neurol 205:82-91). In short, images of every third section through the right and left gracile nuclei were analyzed using the density slice feature of the Scion Image software. […] Images of EC-stained sections were captured, and the positive areas were measured with Scion Image. […] The number of spared myelinated axons at C3 was counted in semithin sections using a 63× oil objective in 15.7×15.7 μm grids placed over the middle part of each fasciculus gracilis (see FIG. 4D-4F). […]
# PTPs = conditions: cited from earlier work
# [1] = tested on: T9 contusive spinal cord injury; experiment: Grid-walking sensorimotor test after T9 contusion
# Experimental: Rats received a 0.3 mm contusion at T9 and 4 h later were implanted with a lumbar catheter to start infusions with PBS (n=9) or PBS containing 100 μM bpV(phen) (n=9). The treatment was maintained for 28 d by replacing the Alzet pumps every week with ones containing fresh reagents (FIG. 1A). Weekly hindlimb grid-walking performance was used to test sensorimotor function, which is in part dependent on the primary afferents and second-order propriospinal axons of the fasciculus gracilis in the dorsal columns. […] Naive rats take ˜150 s to complete the task.
# Baseline values were determined a few days before the contusion. Sensorimotor function was tested by voluntary walking on a 45×45 inch grid with 1.5 inch holes. The hindlimb footfalls were called out by two investigators observing from different sides and recorded by a third. The test was completed after 90 s of walking was observed, and the total time was recorded.
# [2] = Observation of overall health status, general behavior and grooming; assay type: in vivo, rat; conditions: any of the bpV(phen)- and PBS-treated groups
# Experimental: Whether bpV(phen) might have detrimental side effects, such as inducing pain at the level of the injury, was tested. Severe spinal cord injury can induce hypersensitivity and mechanical allodynia (a painful response to a nonpainful tactile skin stimulus) at the level of injury. […] Differences between any of the bpV(phen)- and PBS-treated groups in the overall health status, general behavior, and grooming of the rats were not observed.
compound,measurement,setting,value
"O.O.O.OO.OO.[K+].[OH-].[V].c1cnc2c(c1)ccc1cccnc12 [bpV(phen), potassium bisperoxo(1,10-phenanthroline)oxovanadate (V)]",AP1 activation,AP1,activates
same,area of Iba1-immunostained structures,"Iba1; 1 mm caudal to epicenter, p=0.49",no difference
same,area of Iba1-immunostained structures,"Iba1; 1 mm rostral to epicenter, p<0.005",significantly reduced
same,area of Iba1-immunostained structures,"Iba1; at the epicenter, p=0.053",trend of a reduction
same,area of blood vessels (RECA1) in the dorsal column,RECA1; 30 μM,increased
same,area of blood vessels (RECA1) in the dorsal column,RECA1; 100 μM,increased
same,blood vessels (RECA1) in the dorsal column at the epicenter,"RECA1; 7 d infusion started 4 h after injury, area not significantly different from sham",sparing
same,inhibition of PTPs,PTPs,inhibits
same,total time to perform 90 s of grid walking,"[1]; 100 μM L5/6 infusion started 4 h after contusion, 8 d, PBS 219 s, naive ~150 s",151 s
same,"number of hindlimb footfalls (sum of both hindlimbs), grid walk","[1]; 100 μM L5/6 infusion started 4 h after contusion, 8 d test, PBS 29+/−6, before contusion 7+/−1",14+/−2
same,rats within normal range of footfalls (3-14),"[1]; 100 μM L5/6 infusion started 4 h after contusion, day 8, PBS one of nine",seven of nine
same,"number of hindlimb footfalls, grid walk","[1]; 100 μM, 28 d L5/6 infusion started 4 h after contusion, 29 d test, PBS 13+/−2",6+/−1
same,total time to perform 90 s of grid walking,"[1]; 100 μM, 28 d L5/6 infusion started 4 h after contusion, 36 d, PBS 200 s",125 s
same,"differences versus PBS groups in overall health status, general behavior and grooming",[2],not observed
